Like-named read-outs stand apart in the source and are kept apart here.
Key:
[1] = tested on: green peach aphid (Myzus persicae); experiment: Control of green peach aphid, contact activity; format: in vivo; details: topical, 72 hours, 25° C., read-out: Percentage mortality of green peach aphid, Contact
Experimental: (§1) A wettable powder was prepared by homogeneously mixing and pulverizing three times in a hammer mill 10 parts by weight of one of the test compounds indicated in Tables 2 and 3, 4 parts by weight of sodium dodecylbenzene sulphonate, 2 parts by weight of polyvinyl alcohol and 84 parts by weight of clay. The wettable powder thus prepared was then diluted with water to the concentration indicated in Table 1, and then 0.01% w/v of Gramin (a spreader) was added.
The resulting diluted solution was then sprayed onto the leaves of a cabbage bearing green peach aphids (Myzus persicae) in an amount of 10 ml per leaf. The leaf stalk of each leaf was then placed in a 30 ml bottle containing water and the mouth of the bottle was plugged with cotton wool. The bottles were then left in a room maintained at 25° C.

[2] = tested on: green peach aphid (Myzus persicae); experiment: Control of green peach aphid, systemic activity; format: in vivo; details: 72 hours, 25° C., read-out: Percentage mortality of green peach aphid, Systemic
Experimental: as §1
The suspensions were then poured into 30 ml bottles. Leaves of the Chinese mustard "Komatsuna" bearing green peach aphids were then placed in the bottles and the mouths of the bottles were plugged with cotton wool. The bottles were placed in a room maintained at 25° C. for 72 hours, after which the percentage mortality of the aphids was assessed.

[3] = tested on: brown planthopper (Nilaparvata lugens); experiment: Activity against the brown planthopper, dust on rice seedlings; format: in vivo; details: topical, 10 mg per pot, resistant strain, final instar larvae, 72 hours, 25° C., read-out: Percentage mortality, Brown planthopper
Experimental: (§2) A dust was prepared by homogeneously mixing and pulverizing twice with a pulverizer 2 parts by weight of each in turn of the test compounds indicated in Table 4 and 98 parts by weight of clay. The dusts were then sprayed onto rice seedlings planted in plastic pots and covered with a plastic cylinder in amounts sufficient to provide 10 mg of the […] dust per pot (corresponding to 1.4 kg of dust per 10 ares). 10-15 of the final instar larvae of the green rice leafhopper (Naphotettix cincticeps) or of the brown planthopper (Nilaparvata lugens) of strains known to be resistant both to conventional organic phosphorus and carbamate insecticides were released into each pot. After maintaining the pots at 25° C. for 72 hours, the percentage mortality of the larvae was assessed. Each test was carried out twice and the results averaged.

[4] = tested on: green rice leafhopper (Naphotettix cincticeps); experiment: Activity against the green rice leafhopper, dust on rice seedlings; format: in vivo; details: Nephotettix cincticeps, topical, 10 mg per pot, resistant strain, final instar larvae, 72 hours, 25° C., read-out: Percentage mortality, Green rice leafhopper
Experimental: as §2

[5] = tested on: green peach aphids of a strain resistant to organic phosphate insecticides; experiment: Activity against green peach aphids (mixed formulation); format: in vivo; details: Myzus persicae, topical, read-out: Percentage mortality
Experimental: Emulsifiable concentrates containing a total of 25% by weight of active ingredient or ingredients were prepared as described in Example 22 and diluted with water to the concentrations given in the following Table 6. Each emulsion contained as active ingredient Compound No. 1, Compound No. 9 or the known insecticide isoxathion alone or contained a mixture of isoxathion and Compound No. 1 or No. 9. The diluted emulsions were sprayed, in an amount of 10 ml per leaf, onto the leaves of the Chinese mustard "Komatsuna" bearing green peach aphids of a strain known to be resistant to organic phosphate insecticides. The leaf stalks of the leaves were placed into 30 ml bottles and the mouths of the bottles were plugged with cotton wool. After maintaining the leaves at 25° C. for 72 hours, the percentage mortality was assessed and the results are shown in Table 6. The expected percentage mortality of the combinations of Compound No. 1 or No. 9 with Isoxation is shown in parentheses in the table.

[6] = tested on: brown planthopper; experiment: Activity against the brown planthopper (mixed formulation); format: in vivo; details: Nilaparvata lugens, topical; for mortality at 50 mg: read-out: percentage mortality, insecticide alone (Compound 1 0 mg)
Experimental: Soil and water were placed into plastic pots having inside diameters and heights each of about 10 cm to prepare the pots for submerged cultivation,with water to a depth of about 2 cm. Rice seedlings were then planted in the pots and maintained in a greenhouse, until they had grown to a height of about 15 cm.
Dusts were prepared, each containing 0.1% w/w of Compound No. 1 or of the known organic phosphate or carbamate insecticides listed in Table 5, and these were homogeneously applied, in the amounts specified in the Table, to each pot. 10-15 of the final instar larvae of the brown planthopper were then released onto each pot. The pots were then covered and maintained at 25° C. for 72 hours, after which the percentage mortality of the larvae was assessed.
The experiments were conducted using the known organic phosphate and carbamate insecticides either alone or together with Compound No. 1 (50 mg). The percentage mortality achieved using Compound No. 1 alone in an amount of 50 mg was also assessed and found to be 0%. The expected percentage mortality of the combination of Compound No. 1 with the known organic phosphate and carbamate insecticides was calculated by the method of C. I. Bliss [Ann. Appl. Biol. 26, 585 (1939)] and is shown in parentheses in the Table.

[7] = Toxicity test in mice, mortality after 7 days (Litchfield and Wilcoxon); parameters: species or system mice (ddY-SLC); details: mouse, in vivo
Experimental: Each of the compounds listed in Table 1 was administered in the form of a suspension, to which 0.5% w/v gum tragacanth had been added, to a group of 5 week old ddY-SLC series mice. Each test group consisted of 10 male and 10 female mice. The LD50 value was calculated, by the method of Litchfield and Wilcoxon [J. Pharmac. Exp. Ther. 96, 99 (1949)], from the mortality rate after 7 days.

[8] = 0.1% dust 50 mg, 72 hours, 25° C.

`CN(C)C(=O)Oc1noc(C[S+](C)[O-])c1Cl` (stereo not shown) [compound 11, 4-Chloro-3-dimethylcarbamoyloxy-5-methylsulphinylmethylisoxazole] gave a mortality at 50 ppm [1] of 100% and a mortality at 6.25 ppm [2] of 100%.
For `CN(C)C(=O)Oc1cc(CS(C)(=O)=O)on1` [compound 7, 3-Dimethylcarbamoyloxy-5-methylsulphonylmethylisoxazole], the mortality at 50 ppm [1] was 82% and the mortality at 6.25 ppm [2] was 85%.
With `CCCSCc1cc(OC(=O)N(C)C)no1` [compound 3, 3-Dimethylcarbamoyloxy-5-propylthiomethylisoxazole] the mortality at 10 mg/pot [3] was 68%, the mortality at 50 ppm [1] was 86% and the mortality at 6.25 ppm [2] was 100%. For the same compound, the mortality at 10 mg/pot [4] was 68%.
`CCOP(=S)(OCC)Oc1cc(-c2ccccc2)on1` [Isoxathion, O,O-Diethyl O-(5-phenyl-3-isoxazolyl)phosphorothioate, reference compound] gave a mortality at 25 ppm ([5]; Isoxathion 25 ppm, 72 hours, 25° C.) of 0% and a mortality at 50 ppm ([5]; Isoxathion 50 ppm, 72 hours, 25° C.) of 4.4%.
In the case of `CNC(=O)Oc1cccc2ccccc12` [NAC, 1-Naphthyl N-methylcarbamate], the mortality at 50 mg ([6]; 72 h) is reported as 29.2%.
With `CN(C)C(=O)Oc1noc(CS(C)(=O)=O)c1Cl` [Compound No. 12, 4-Chloro-3-dimethylcarbamoyloxy-5-methylsulphonylmethylisoxazole] the mortality at 50 ppm [1] was 82% and the mortality at 6.25 ppm [2] was 90%.
With `CCS(=O)(=O)Cc1cc(OC(=O)N(C)C)no1` [compound 8, 3-Dimethylcarbamoyloxy-5-ethylsulphonylmethylisoxazole] the mortality at 50 ppm [1] was 80% and the mortality at 6.25 ppm [2] was 85%.
Work on `CCSCc1onc(OC(=O)N(C)C)c1Cl` [compound 10, 4-Chloro-3-dimethylcarbamoyloxy-5-ethylthiomethylisoxazole] yielded a mortality at 50 ppm [1] of 97% and a mortality at 6.25 ppm [2] of 100%.
In the case of `Cc1cc(OC(=O)N(C)C)no1` [3-Dimethylcarbamoyloxy-5-methylisoxazole, reference compound], the mortality at 10 mg/pot [3] is reported as 22%, the mortality at 12.5 ppm [1] is reported as 34% and the mortality at 50 ppm [1] is reported as 84%. The LD50 at 168 h ([7]; male/female mice) was 31.2 mg/kg, the mortality at 1.56 ppm [2] was 74% and the mortality at 6.25 ppm [2] was 89%. It also gave a mortality at 10 mg/pot [4] of 9%.
With `CSCc1onc(OC(=O)N(C)C)c1Br` [compound 13, 4-Bromo-3-dimethylcarbamoyloxy-5-methylthiomethylisoxazole] the mortality at 12.5 ppm [1] was 99%, the mortality at 50 ppm [1] was 100% and the mortality at 1.56 ppm [2] was 100%. For the same compound, the mortality at 6.25 ppm [2] was 100%.
Work on `CN(C)C(=O)Oc1cc(C[S+](C)[O-])on1` (stereo not shown) [Compound No. 5, 3-Dimethylcarbamoyloxy-5-methylsulphinylmethylisoxazole] yielded a mortality at 50 ppm [1] of 86% and a mortality at 6.25 ppm [2] of 100%.
`COCc1cc(OC(=O)N(C)C)no1` [compound 15, 3-Dimethylcarbamoyloxy-5-methoxymethylisoxazole] gave a mortality at 50 ppm [1] of 84% and a mortality at 6.25 ppm [2] of 100%.
Compound `CC[S+]([O-])Cc1cc(OC(=O)N(C)C)no1` (stereo not shown) [compound 6, 3-Dimethylcarbamoyloxy-5-ethylsulphinylmethylisoxazole] has a mortality at 50 ppm [1] of 88% and a mortality at 6.25 ppm [2] of 100%.
Compound `CNC(=O)Oc1ccccc1C(C)C` [MIPC, 2-Isopropylphenyl N-methylcarbamate] has a mortality at 50 mg [6, 8] of 25%.
With `CSCc1onc(OC(=O)N(C)C)c1I` [compound 14, 3-Dimethylcarbamoyloxy-4-iodo-5-methylthiomethylisoxazole] the mortality at 50 ppm [1] was 86% and the mortality at 6.25 ppm [2] was 100%.
`CNC(=O)Oc1cccc(C)c1` [MTMC, 3-Tolyl N-methylcarbamate] showed a mortality at 50 mg [6, 8] of 20.8%.
Work on `CCSCc1cc(OC(=O)N(C)C)no1` [Compound No. 2, 3-Dimethylcarbamoyloxy-5-ethylthiomethylisoxazole] yielded a mortality at 10 mg/pot [3] of 95%, a mortality at 50 ppm [1] of 100% and an LD50 at 168 h ([7]; female mice) of 104 mg/kg. For the same compound, the LD50 at 168 h ([7]; male mice) was 125 mg/kg, the mortality at 6.25 ppm [2] was 100% and the mortality at 10 mg/pot [4] was 67%.
For `CSCc1onc(OC(=O)N(C)C)c1Cl` [Compound No. 9, 4-Chloro-3-dimethylcarbamoyloxy-5-methylthiomethylisoxazole], the mortality at 10 mg/pot [3] was 100%, the mortality at 12.5 ppm [1] was 90% and the mortality at 50 ppm [1] was 100%. It also gave a mortality at 2.5 ppm ([5]; 72 h) of 20.1%, a mortality at 5 ppm ([5]; 72 h) of 38.4% and a mortality at 1.56 ppm [2] of 100%. For the same compound, the mortality at 6.25 ppm [2] was 100%.
In the case of `CSCc1cc(OC(=O)N(C)C)no1` [Compound No. 1, 3-Dimethylcarbamoyloxy-5-methylthiomethylisoxazole], the mortality at 10 mg/pot [3] is reported as 100%, the mortality at 12.5 ppm [1] is reported as 83% and the mortality at 50 ppm [1] is reported as 100%. It also gave an LD50 at 168 h ([7]; female mice) of 109 mg/kg, an LD50 at 168 h ([7]; male mice) of 110 mg/kg and a mortality at 5 ppm ([5]; 72 h) of 25.8%. It also gave a mortality at 10 ppm ([5]; 72 h) of 59.8%, a mortality at 1.56 ppm [2] of 100% and a mortality at 6.25 ppm [2] of 100%. For the same compound, the mortality at 50 mg/pot ([6]; 72 h, read-out: percentage mortality, Compound No. 1 alone) was 0% and the mortality at 10 mg/pot [4] was 65%.
Compound `CC(C)SCc1cc(OC(=O)N(C)C)no1` [compound 4, 3-Dimethylcarbamoyloxy-5-isopropylthiomethylisoxazole] has a mortality at 50 ppm [1] of 81% and a mortality at 6.25 ppm [2] of 96%.
